Test results: US20250177375A1, “AZAPHILONE COMPOUND AND USE THEREOF IN PREPARATION OF ANTI-TUMOR DRUGS” (OCEAN UNIVERSITY OF CHINA, priority 2022, published 2025)
“Also recorded” adds a separate entry of the source.

How the values were obtained:
[1] = system: NK92 cells; assay: Killing function of NK92 cells against tumor cells after compound treatment (LDH assay, initial screening); type: cell-based, Human; conditions: for cytotoxicity at 0.1 µM: Homo sapiens, NK92 treated at 100 nM for 72 h, effector-to-target ratio 5:1, 5 h co-culture, LDH release, read-out: tumor killing rate by NK activation
Procedure: (§1) Seed the NK92 cells obtained from 1.3 into a 24-well cell culture plate (referred to as a 24-well plate) at a concentration of 3×10^5 cells/well, with 4 wells designated as blank or drug-treated. For the drug-treated wells, set the initial screening concentration to 100 nM. Add 900 μL of cell suspension and 100 μL of drug to each well. For the blank wells, add 100 μL of double-distilled water. Incubate the 24-well plate in a 37° C., 5% CO2 incubator for 72 h. Replace the fresh culture medium and add drugs every 24 h during the incubation.
(§2) Seed various types of tumor cells in logarithmic phase into a 96-well cell culture plate at a concentration of 5×10^3 cells/well. Set up 3 replicate wells for each concentration and include wells for target cell spontaneous release and target cell maximum release. Incubate the 96-well plate overnight in a 37° C., 5% CO2 incubator.
Centrifuge and count the NK92 cells from 2.1 in the 24-well plate cultured for 72 h. Add the cells to the overnight-cultured tumor target cells according to the effector-to-target ratio of 5:1 (excluding wells for target cell spontaneous release and maximum release). Also, set up 3 effector cell control wells. Add 200 μL of cell suspension to each well, then centrifuge at 300 g, 25° C. for 5 min to allow sufficient contact between effector cells and target cells. Continue to place the 96 well plate in a 37° C., 5% CO2 incubator and co-cultivate the NK92 and target cells for 5 h.
Lactate dehydrogenase (LDH) assay kit (BioGend Biotech Co., Ltd.) is used to detect the killing effect of effector cells on target cells. Add LDH release reagent to the wells with target cell maximum release and incubate for 1 h. After 1 h, centrifuge at 500 g, 25° C. for 5 min. Transfer 120 μL of supernatant from each well to a new 96-well plate, add the prepared LDH detection solution (60 μL/well: 20 μL lactate solution, 20 μL 1×INT working solution, and 20 μL enzyme solution) in the dark, and mix well by pipetting. Incubate at room temperature in the dark for 20 min (wrapped in aluminum foil and shook slowly on a shaker). Measure the absorbance at 490 nm using a microplate reader and the measured absorbance value of each well should subtract the absorbance value of the background blank control well.
Cytotoxicity (%)=[(Experimental group−Effector cell control−Target cell spontaneous release)/(Target cell maximum release−Target cell spontaneous release)]×100.

[2] = system: cancer cell lines; assay: In vitro assays of cancer cell lines; type: cell-based; conditions: direct activity on cancer cell lines; read-out: IC50 in all in vitro assays of cancer cell lines
Excerpt: In prior research (Sun C.; Ge X.; Mudassir S.; Zhou L.; Yu G.; Che Q.; Zhang G.; Peng J.; Gu Q.; Zhu T. New glutamine-containing azaphilone alkaloids from deep-sea-derived fungus Chaetomium globosum HDN151398. Mar. Drugs 2019, 17, 253.), the inventors discovered compound 1778.

[3] = system: NK92 cells; assay: NK cell proliferation rate using CCK-8; type: cell-based, Human; conditions: 1-10000 nM, 72 h, FIG. 1
Procedure: 3. Determination of NK Cell Proliferation Rate Using CCK-8 after Treatment with 1778 3.1 Preparation of Compound Concentration Gradient: Dilute the azaphilone compound 1778 with double-distilled water to set up 5 concentrations, with final concentrations of 1, 10, 100, 1000, and 10000 nM in the wells.
Seed NK92 cells obtained from 1.3 into 96-well cell culture plate (referred to as a 96-well plate) at a concentration of 1×10^4 cells/well, […]. Set up 5 replicates for each compound concentration (also need to set a blank group, that is, double-distilled water replaces the compound), and seal wells with PBS. Incubate in a 37° C., 5% CO2 incubator for 72 h.
Remove the cell culture plates from 2.2 and add 10 μL of CCK-8 solution (Shanghai Yisheng Biotechnology Co., Ltd.) to each well, avoiding bubbles. After adding CCK-8 solution, incubate the 96-well cell culture plates in a 37° C., 5% CO2 incubator for 2.5 h. Measure the absorbance at 450 nm using a microplate reader to compare the proliferation level of NK92 cells.

[4] = system: NK92 cells; assay: Killing ability of NK cell against tumor cells after treatment with 1778 (1, 10, 100 nM); type: cell-based, Human
Procedure: as §1, §2
Centrifuge and count the NK92 cells from 2.1 in the 24-well plate cultured for 72 h. […]
Lactate dehydrogenase (LDH) assay kit (BioGend Biotech Co., Ltd.) is used to detect the killing effect of effector cells on target cells. […] Measure the absorbance at 490 nm using a microplate reader and the measured absorbance value of each well should subtract the absorbance value of the background blank control well. […]

[5] = system: NK92 cells; assay: NK cell activation factor release (ELISA) after co-culture with NCI-H1975; type: cell-based, Human
Procedure: NK cells release granzyme B and perforin to kill tumor cells upon activation, while release IFN-γ to regulate the mechanism of antitumor immunity.
5.1 Pre-treatment of NK92 Cells with Compound 1778: Seed NK92 cells into a 24-well plate and treat with drug as described in section 3.1.
Seed logarithmic phase NCI-H1975 cells into 96-well plates at a concentration of 1×10^4 cells/well. Set up 3 replicates for each concentration and control wells for target cell. Incubate the 96-well plate overnight in a 37° C., 5% CO2 incubator.
According to the effector-to-target ratio of 5:1, add NK92 cells to NCI-H1975, co-cultivate for over 6 h and centrifuge (500 g, 25° C.). Then collect supernatant (use within 24 h). Use ELISA kits (BD Biosciences, USA) to detect the release of 3 activating cytokines granzyme B (FIG. 3), perforin (FIG. 4), and IFN-γ (FIG. 5).

[6] = system: primary NK cells isolated from the peripheral blood of healthy individuals; assay: Primary NK cell activation (CD107 flow cytometry), peripheral blood PBMCs from healthy donors; type: cell-based, Human; conditions: 1, 10, 100 nM, 72 h, K562 targets 5:1, FIG. 6
Procedure: (§3) CD107 is expressed on the surface of NK cells released by the activator. Therefore, the activation of NK cells can be reflected by detecting the content of CD107 expressed by cell membrane.
(§4) 6.1 Collect peripheral blood from normal individuals and pleural effusion from lung cancer patients using sterile anticoagulant tubes, and dilute with an equal volume of sterile PBS. Take a 50 ml centrifuge tube and absorb a certain volume of lymphocyte separation solution (Solarbio Science & Technology Co., Ltd.). Slowly add diluted peripheral blood and pleural effusion in a volume ratio of 4:3. Centrifuge at 400 g at room temperature for 30 min (Adjust the lifting and deceleration speed of the centrifuge to rise 1 or down 1). 6.2 Carefully absorb the white lymphocyte layer in the middle and place it in PBS (at least three times the volume of the absorbed cells). Overturn and blending, and wash the cells. Centrifuge at 100 g at room temperature for 10 min. Discard the supernatant, resuspend the cell pellet in 10 ml PBS, and gently mix. Wash off residual Ficoll, then centrifuge again at 100 g for 10 min. Discard the supernatant, resuspend the cell pellet in RPMI-1640 complete medium, and continue culture for 3 days with RPMI-1640 complete medium containing 10 ng/ml IL-2 to stimulate primary NK cell expansion and activation. […] The detection results were analyzed using FlowJo software.

[7] = system: primary NK cells from the pleural fluid of lung cancer patients; assay: Primary NK cell activation (CD107 flow cytometry), pleural effusion from lung cancer patients; type: cell-based, Human; conditions: 1, 10, 100 nM, 72 h, K562 targets 5:1, FIG. 7
Procedure: as §3, §4

[8] = system: B16F10 melanoma cells; assay: Melanoma lung metastasis model in C57BL/6 mice; type: in vivo; conditions: 25 mg/kg daily intraperitoneal, 14 days; B16F10 via tail vein; FIG. 8
Procedure: To investigate whether 1778 works in vivo, we used a melanoma lung metastasis model.
Mouse B16F10 melanoma cells were intravenously injected into mice, and then 1778 was administered for efficacy evaluation. B116F10 cells are highly metastatic and lack MHC class-I expression, and it has been previously reported that the metastasis of B116F10 cells in vivo is mainly controlled by NK cells.
7.1 Inject 200,000 B116F10 cells via the tail vein into each C57BL/6J mouse. 7.2 A daily intraperitoneal injection of 1778 at a dose of 25 mg/kg (diluted with PBS solution to a final volume of 200 μL). The control group was injected intraperitoneally with an equivalent volume of PBS (with the same concentration of solvent DMSO). Weigh the mice every other day to monitor the impact on body weight. After 14 days of drug administration, euthanize the mice, collect lung tissue, and fix it in tissue fixative. Count and statistically analyze the number of melanoma colonies in the lungs.

Structure (SMILES) | cytotoxicity at 0.1 µM [1] | other results
C/C=C(\C)C(=O)C1=C2C3=CN([C@@H](CCC(=O)O)C(=O)O)C(/C=C/[C@@H](C)CC)=CC3=C(Cl)C(=O)[C@@]2(C)OC1=O [Compound 1778] | 75.2% | activation effect on NK92 cells ([1]; summary in words of the 100 nM screening table): very strong activation effect; IC50 [2]: > 50 µM; proliferation of NK92 cells [3]: weak proliferative effect; also recorded: promotes the proliferation; ability of NK92 cells to kill various types of tumor cells ([4]; 1, 10, 100 nM, FIG. 2): significantly enhances; also recorded: significantly promotes the killing activity; concentration at which NK cells are activated ([4]; concentrations as low as): 1 to 100 nM; release of granzyme B by NK-92 cells ([5]; co-culture with NCI-H1975, 5:1, FIG. 3): promotes the releases; also recorded: significantly promotes the release; release of perforin by NK-92 cells ([5]; co-culture with NCI-H1975, 5:1, FIG. 4): promotes the releases; also recorded: significantly promotes the release; release of IFN-γ by NK-92 cells ([5]; co-culture with NCI-H1975, 5:1, FIG. 5): significantly promotes the release; also recorded: promotes the releases; expression of CD107 (degranulation) in primary NK cells [6]: significantly promotes the degranulation; also recorded: significant increase; expression of CD107 (degranulation) in primary NK cells [7]: significantly promotes the degranulation; also recorded: significant increase; number of lung metastases (melanoma colonies in the lungs) [8]: significant inhibitory effect; also recorded: significantly reduced
C/C=C(\C)C(=O)C1=C2C3=CN([C@@H](CCC(=O)OC)C(=O)OC)C(/C=C/[C@@H](C)CC)=CC3=C(Cl)C(=O)[C@@]2(C)OC1=O [Compound 1779] | 22% | 
CC[C@H](C)/C=C(C)/C=C/C1=CC2=C(Cl)C(=O)[C@](C)(OC(C)=O)C(=O)C2=CN1CC(=O)O [Compound 1996] | 6.12% | 
CC[C@H](C)/C=C(C)/C=C/C1=CC2=C(Cl)C(=O)[C@](C)(OC(C)=O)C(=O)C2=CN1[C@@H](Cc1ccc(O)cc1)C(=O)O [Compound 1997] | 29.5% | 
CC[C@H](C)/C=C(C)/C=C/C1=CC2=C(Cl)C(=O)[C@](C)(OC(C)=O)C(=O)C2=CN1[C@@H](C)C(=O)O [Compound 1998] | 78.4% | 
CC[C@H](C)/C=C(C)/C=C/C1=CC2=C(Cl)C(=O)[C@](C)(OC(C)=O)C(=O)C2=CN1[C@@H](CO)C(=O)O [Compound 1999] | 58.3% | 
CC[C@H](C)/C=C(C)/C=C/C1=CC2=C(Cl)C(=O)[C@](C)(OC(C)=O)C(=O)C2=CN1[C@@H](Cc1ccccc1)C(=O)O [Compound 2000] | 65.2% | 
CC[C@H](C)/C=C(C)/C=C/C1=CC2=C(Cl)C(=O)[C@](C)(OC(C)=O)C(=O)C2=CN1[C@@H](CC(C)C)C(=O)O [Compound 2001] | 18.7% | 
CC[C@H](C)/C=C(C)/C=C/C1=CC2=C(Cl)C(=O)[C@](C)(OC(C)=O)C(=O)C2=CO1 [Compound 2307] | 38.3% | 
CC[C@H](C)/C=C(C)/C=C/C1=CC2=C(Cl)C(=O)[C@](C)(OC(C)=O)C(=O)C2=CN1CCO [Compound 2308] | 8.11% | 
CC[C@H](C)/C=C(C)/C=C/C1=CC2=C(Cl)C(=O)[C@](C)(OC(C)=O)C(=O)C2=CN1[C@H](C(=O)O)[C@@H](C)O [Compound 2309] | 28.3% | 
C/C=C(\C)C(=O)C1=C2C3=CN([C@@H](Cc4c[nH]c5ccccc45)C(=O)O)C(/C=C/[C@@H](C)CC)=CC3=C(Cl)C(=O)[C@@]2(C)OC1=O [Compound 2318] | 35.9% | 
C/C=C(\C)C(=O)C1=C2C3=CN([C@@H](Cc4c[nH]cn4)C(=O)O)C(/C=C/[C@@H](C)CC)=CC3=C(Cl)C(=O)[C@@]2(C)OC1=O [Compound 2320] | 22.2% | 
